Literature values, collected in patent US20220265566A1, “ATOVAQUONE NANOPARTICULATE COMPOSITIONS” (Tulex Pharmaceuticals Inc., priority 2018, published 2022).

Solubility in water: practically insoluble in water
SMILES: O=C1C(O)=C([C@H]2CC[C@H](c3ccc(Cl)cc3)CC2)C(=O)c2ccccc21 [ATQ, trans-2-[4-(4-chlorophenyl)cyclohexyl]-3-hydroxy-1,4-naphthalenedione]
